This note sets out measurements from paper PMC6270616, “Antidiabetic and Antioxidant Properties of Alkaloids from Catharanthus roseus (L.) G. Don” (Molecules, 2013).

Molecules are shown by their SMILES.

The experiment concerns the target T1, protein tyrosine phosphatase-1B (PTP-1B) (Homo sapiens, UniProt P18031).
T1 construct: gene PTPN1; recombinant PTP-1B
T1 sequence (P18031 1-435): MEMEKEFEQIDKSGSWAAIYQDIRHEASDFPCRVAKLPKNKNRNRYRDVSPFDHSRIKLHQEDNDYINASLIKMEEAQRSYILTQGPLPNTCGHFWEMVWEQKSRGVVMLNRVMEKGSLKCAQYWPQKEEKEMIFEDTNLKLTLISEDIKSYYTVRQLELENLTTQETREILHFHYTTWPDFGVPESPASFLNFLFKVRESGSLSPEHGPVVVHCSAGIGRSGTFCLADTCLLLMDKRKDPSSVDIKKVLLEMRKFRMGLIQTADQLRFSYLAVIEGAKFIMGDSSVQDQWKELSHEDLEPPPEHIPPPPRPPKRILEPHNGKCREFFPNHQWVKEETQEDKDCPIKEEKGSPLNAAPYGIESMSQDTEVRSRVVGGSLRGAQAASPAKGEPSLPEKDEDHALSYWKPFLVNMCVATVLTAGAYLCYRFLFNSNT
Put plainly: pNPP phosphatase assay with recombinant enzyme, absorbance at […] nm. In kind it is biochemical.

With `COC(=O)[C@@H]1C[C@@]23C=CCN4CC[C@@]5(c6ccccc6N[C@]15[C@@H]2C)[C@@H]43` [IV, vindolinine], the “pNPP phosphatase assay with recombinant enzyme, absorbance at 405 nm” value is “compounds II–IV demonstrated good protein tyrosine phosphatase-1B (PTP-1B) inhibition activity”.
